Measurements from patent publication US20250197368A1 (priority 2020, published 2025).

Assays:
[1] = target: human α2β3γ2 GABAARs (benzodiazepine site) (Homo sapiens (Human), UniProt P18507+P47869); assay: In vitro radioligand binding assay ([3H]Ro15-1788 displacement), α2-GABAAR Ki
Outline: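 Ki derived via Cheng-Prusoff from IC50 for displacement of 4 nM [3H]Ro15-1788 (Kd from saturation binding), with 1-3 μM TP003 defining nonspecific binding. Incubation lasted 1 h at 4° C on membranes of induced L(tk−) cells stably transfected with the human subunits; detection by filtration and scintillation counting.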

[2] = target: human α3β3γ2 GABAARs (benzodiazepine site) (Homo sapiens (Human), UniProt P18507+P34903); assay: In vitro radioligand binding assay ([3H]Ro15-1788 displacement), α3-GABAAR Ki; settings: L(tk-) cell membranes, 4 nM [3H]Ro15-1788
Experimental: The affinity (Ki) of compounds for the benzodiazepine site of human recombinant GABAARs was measured by their ability to inhibit the binding of the selective benzodiazepine antagonist [^3H]Ro15-1788 ([^3H] flumazenil).
Mouse L(tk^−) cells stably expressing human α1β3γ2, α2β3γ2, α3β3γ2, α5β3γ2 GABAARs were generated by transfection of the individual subunits in the dexamethasone-inducible expression vector pMSGneo in mouse L(tk^−) cells (Hadingham et al., 1993, Mol. Pharmacol. 43:970-975 and 1993, Mol. Pharmacol. 44:1211-1218).
L(tk^−) cells stably expressing human α1β3γ2, α2β3γ2, α3β3γ2, α5β3γ2 GABAARs were maintained in DMEM F12 medium supplemented with 10% Foetal Bovine Serum, 1% Penicillin/Streptomycin and 1 mg/mL Geneticin G418 in an incubator at 37° C. with a humidified atmosphere with 5% CO2. Dexamethasone was added to the culture medium to induce GABAAR expression.
L(tk−) cells were harvested and membranes were prepared for each receptor combination in either TE buffer (10 mM Tris·CI/0.1 mM EDTA, pH 7.5) or phosphate buffer (K2PO4 10 mM, pH 7.0) (Hadingham et al. (1992) Proc. Natl. Acad. Sci. USA; 89 (14): 6378-82). Protein concentration, receptor expression and the Kd of [^3H]Ro15-1788 were determined before Ki value of the compounds were evaluated. For Kd evaluation, saturation binding curves were obtained by incubating membrane with various concentrations of [^3H]Ro15-1788 (82.5 Ci/mM), with nonspecific binding measured in the presence of 1-3 μM TP003.
For Ki evaluation, cell membranes were incubated with 4 nM [^3H]Ro15-1788 along with a range of concentrations of test compound. Nonspecific binding was determined using 1-3 μM TP003. All incubations were performed for 1 hour at 4° C. in assay buffer. The total assay volume was 0.5 mL, containing 40 μg/well α1β3γ2, 30 μg/well α2β3γ2, 40 μg/well α3β3γ2 and 30 μg/well for α5β3γ2 of membrane protein. Incubations were terminated by filtration and washing with ice cold Tris-HCl buffer (50 mM, pH=7.4) over Whatman GF/B filters and the radioactivity of the filters was measured using liquid scintillation counting.
The % inhibition of [^3H]Ro15-1788 binding was plotted as a function of compound concentration and the IC50 calculated. From the IC50, the affinity (Ki) was calculated using the method of Cheng and Prusoff using the Kd values obtained for [^3H]Ro15-1788.

[3] = test system: human α2β3γ2 GABAARs; assay: In vitro electrophysiological recording assay (automated patch-clamp), α2-GABAAR relative efficacy; type: cell-based; settings: % efficacy normalised to diazepam; GABA EC10-20; concentration generally >= 100 times Ki
Outline: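 Relative efficacy is % enhancement of the leak-subtracted GABA EC10-20 peak current, divided by the separately measured diazepam value; compound generally tested at ≥100× Ki after ≥1 min pre-application. Recordings at room temperature, human receptors stably expressed in L(tk^−) (QPatch, −65 mV) or HEK293 (SyncroPatch, −80 mV) cells.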

[4] = test system: human α3β3γ2 GABAARs; assay: In vitro electrophysiological recording assay (automated patch-clamp), α3-GABAAR relative efficacy; type: cell-based; settings: % efficacy normalised to diazepam; GABA EC10-20; concentration generally >= 100 times Ki
Experimental: The efficacy of modulators was evaluated using the automated patch-clamp platforms QPatch16 (Sophion, Copenhagen, Denmark) or SyncroPatch 384PE (Nanion, Germany).
For QPatch electrophysiology testing L(tk^−) cells stably expressing human α1β3γ2, α2β3γ2, α3β3γ2, α5β3γ2 GABAARs were used. HEK293 cells stably expressing human α1β3γ2L, α2β3γ2L, α3β3γ2L and α5β3γ2L GABAARs were used for the SyncroPatch 384PE experiments.
All experiments were carried out at room temperature (20-22° C.) using a standard whole cell procedure and physiological solutions. Gigaseals were formed upon execution of a combined suction/voltage protocol with subsequent increased suction leading to the whole-cell configuration.
The currents recorded were acquired at either 1 KHz or 2 KHz and filtered using a Bessel filter. Whole-cell currents were measured at a holding potential of-65 mV (QPatch) or −80 mV (SyncroPatch).
For QPatch experiments, the extracellular solution contained of: 145 mM NaCl, 4 mM KCl, 1 mM MgCl2, 2 mM CaCl2), 10 mM HEPES, 10 mM D-glucose (pH 7.4), and the intracellular solution consisted of: 96 mM KCl, 28 mM CsCl, 25 mM KOH, 4.3 mM CaCl2), 1.4 mM MgCl2, 10 mM EGTA, 10 mM HEPES, 3 mM MgATP (pH 7.2). The osmolarities of the extracellular and intracellular solutions were 305 and 295 mOsm respectively.
For SyncroPatch experiments, the extracellular recording solution contained: 140 mM NaCl, 4 mM KCl, 2 mM CaCl2), 1 mM MgCl2, 10 mM HEPES, 5 mM glucose (pH 7.4 with NaOH and osmolarity of c. 300-310 mOsm). The intracellular recording solution consisted of: 90 mM KCl, 50 mM KF, 1.5 mM MgCl2, 11.1 mM EGTA and 10 mM HEPES (pH 7.2 with KOH and osmolarity of c. 300 mOsm). 2 mM of NaATP was added to the intracellular solution on the day of testing.
The effects of modulators were evaluated in the presence of a submaximal GABA concentration, giving typically less than 30% activation of the response elicited by a saturating GABA concentration. To check and ensure baseline current stability before compound addition, two to five consecutive applications of GABA EC10-20 separated by wash steps were performed before compound addition. The test compound was applied 1 min at least prior to co-application with GABA EC10-20. Following a further wash step, a saturating concentration of GABA was applied at the end of each recording, allowing the accurate evaluation for each cell of the percentage baseline activation elicited by the submaximal GABA applied.
The compounds were first dissolved in DMSO as a 10 mM stock and then further diluted to the testing concentrations so that the final DMSO concentration in the extracellular recording solution was 0.1% (QPatch) or 0.2% (SyncroPatch).
The % efficacy of modulators was determined from the GABA elicited currents recorded in the presence and absence of the test compound, using the formula:
[((compound peak current−leak)−(GABA peak current-leak))/(GABA peak current−leak)]*100,
where ‘leak’ is the leak baseline current at the holding potential, ‘compound peak current’ is the current elicited by co-application of compound and GABA, and ‘GABA peak current’ is the current elicited by GABA alone at the last GABA application before compound addition. The results were presented as ‘relative efficacy’ for each compound generally at a concentration equal or higher than 100 times their determined Ki. The relative efficacy of a compound was calculated by normalising its % efficacy to the corresponding % efficacy of diazepam that was separately determined.

human α2β3γ2 GABAARs (benzodiazepine site), sequence (P47869 29-451): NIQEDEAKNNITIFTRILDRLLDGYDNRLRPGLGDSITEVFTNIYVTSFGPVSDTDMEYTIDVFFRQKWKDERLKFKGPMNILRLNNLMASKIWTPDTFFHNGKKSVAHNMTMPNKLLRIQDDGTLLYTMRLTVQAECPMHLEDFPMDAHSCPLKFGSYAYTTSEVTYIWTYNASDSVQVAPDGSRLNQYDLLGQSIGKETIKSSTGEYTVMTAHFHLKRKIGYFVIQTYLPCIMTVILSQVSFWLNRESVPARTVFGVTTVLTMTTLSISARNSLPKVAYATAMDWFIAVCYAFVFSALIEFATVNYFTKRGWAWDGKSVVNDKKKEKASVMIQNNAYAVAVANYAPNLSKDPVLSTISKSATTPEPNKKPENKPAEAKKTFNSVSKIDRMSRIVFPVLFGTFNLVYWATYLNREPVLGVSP
human α2β3γ2 GABAARs (benzodiazepine site), sequence (P28472 26-473 partner): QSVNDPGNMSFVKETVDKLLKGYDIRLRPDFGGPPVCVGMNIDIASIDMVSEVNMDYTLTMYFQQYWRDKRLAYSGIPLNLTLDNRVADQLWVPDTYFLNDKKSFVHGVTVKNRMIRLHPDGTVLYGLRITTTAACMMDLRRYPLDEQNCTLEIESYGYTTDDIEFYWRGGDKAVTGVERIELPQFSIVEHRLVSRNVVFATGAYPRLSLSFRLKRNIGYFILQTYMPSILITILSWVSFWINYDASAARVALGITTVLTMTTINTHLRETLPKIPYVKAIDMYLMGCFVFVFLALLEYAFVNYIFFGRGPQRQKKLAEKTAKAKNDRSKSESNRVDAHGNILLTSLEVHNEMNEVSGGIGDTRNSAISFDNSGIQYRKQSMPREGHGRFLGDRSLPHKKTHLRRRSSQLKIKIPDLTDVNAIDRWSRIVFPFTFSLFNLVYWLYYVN
human α2β3γ2 GABAARs (benzodiazepine site), sequence (P18507 40-475): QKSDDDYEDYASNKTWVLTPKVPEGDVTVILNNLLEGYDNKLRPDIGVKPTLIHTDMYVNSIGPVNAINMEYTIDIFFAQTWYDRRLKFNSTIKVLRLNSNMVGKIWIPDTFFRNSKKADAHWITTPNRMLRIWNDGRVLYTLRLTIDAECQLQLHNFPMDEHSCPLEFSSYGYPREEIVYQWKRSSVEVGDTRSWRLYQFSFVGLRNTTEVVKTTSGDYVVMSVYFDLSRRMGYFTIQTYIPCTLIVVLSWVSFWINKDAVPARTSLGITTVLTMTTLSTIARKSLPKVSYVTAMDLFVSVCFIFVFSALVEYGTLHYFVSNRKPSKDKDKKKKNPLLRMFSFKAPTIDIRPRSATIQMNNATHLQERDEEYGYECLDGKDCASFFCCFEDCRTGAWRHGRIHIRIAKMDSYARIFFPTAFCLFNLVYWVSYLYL

Row | SMILES | Ki [1] | Ki [2] | α2-GABAAR Relative Efficacy (vs. Diazepam) [3] | α3-GABAAR Relative Efficacy (vs. Diazepam) [4]
1 | CCCNC(=O)c1c(N)c2cccc(-c3nc(C)ccc3F)c2[nH]c1=O [Example 7, 4-Amino-8-(3-fluoro-6-methyl-2-pyridyl)-2-oxo-N-propyl-1H-quinoline-3-carboxamide] | 0.59 nM | 1.17 nM | 0.16 | 0.43
2 | CCCNC(=O)c1c(N)c2cccc(-c3nc(CO)ccc3F)c2[nH]c1=O [Example 11, 4-Amino-8-[3-fluoro-6-(hydroxymethyl)-2-pyridyl]-2-oxo-N-propyl-1H-quinoline-3-carboxamide] | 2.13 nM | 4.38 nM | 0.32 | 0.24
3 | CCCNC(=O)c1c(N)c2cccc(-c3cncc(CO)c3)c2[nH]c1=O [Example 25, 4-Amino-8-[5-(hydroxymethyl)-3-pyridyl]-2-oxo-N-propyl-1H-quinoline-3-carboxamide] | 3.4 nM | – | 0.15 | 0.10
4 | CCCNC(=O)c1c(N)c2cccc(-c3ccnc(CO)c3)c2[nH]c1=O [Example 32, 4-Amino-8-[2-(hydroxymethyl)-4-pyridyl]-2-oxo-N-propyl-1H-quinoline-3-carboxamide] | 3.09 nM | 6.86 nM | 0.24 | 0.29
5 | CCCNC(=O)c1c(N)c2cccc(-c3cc(OC)ncc3F)c2[nH]c1=O [Example 34, 4-Amino-8-(5-fluoro-2-methoxy-4-pyridyl)-2-oxo-N-propyl-1H-quinoline-3-carboxamide] | 0.68 nM | 1.58 nM | 0.49 | 0.47
6 | CCCNC(=O)c1c(N)c2cccc(-c3nc(OC)ncc3F)c2[nH]c1=O [Example 42, 4-Amino-8-(5-fluoro-2-methoxy-pyrimidin-4-yl)-2-oxo-N-propyl-1H-quinoline-3-carboxamide] | 0.56 nM | 0.64 nM | 0.25 | 0.21
7 | CCCNC(=O)c1c(N)c2cccc(-c3nc(C)[nH]c3C)c2[nH]c1=O [Example 52, 4-Amino-8-(2,5-dimethyl-1H-imidazol-4-yl)-2-oxo-N-propyl-1H-quinoline-3-carboxamide] | 6.61 nM | – | 0.53 | 0.41
8 | [2H]C([2H])([2H])C([2H])([2H])C([2H])([2H])NC(=O)c1c(N)c2cccc(-c3cnccc3OC)c2[nH]c1=O [Example 62, 4-Amino-8-(4-methoxypyridin-3-yl)-2-oxo-N-(propyl-d7)-1,2-dihydroquinoline-3-carboxamide] | 6.85 nM | 5.41 nM | 0.28 | 0.44
9 | COc1ccncc1-c1cccc2c(N)c(C(=O)NCCC(F)(F)F)c(=O)[nH]c12 [Example 69, 4-Amino-8-(4-methoxypyridin-3-yl)-2-oxo-N-(3,3,3-trifluoropropyl)-1,2-dihydroquinoline-3-carboxamide] | 26.5 nM | 60.5 nM | 0.6 | 0.59
10 | CCCNC(=O)c1c(N)c2cccc(-c3cc(OCc4ccccn4)ccc3F)c2[nH]c1=O [Example 85, 4-Amino-8-[2-fluoro-5-(2-pyridylmethoxy)phenyl]-2-oxo-N-propyl-1H-quinoline-3-carboxamide] | 0.3 nM | 0.7 nM | 0.32 | 0.42
11 | CCCNC(=O)c1c(N)c2cccc(-c3cc(OCc4cccc(C#N)n4)ccc3F)c2[nH]c1=O [Example 91, 4-Amino-8-(5-((6-cyanopyridin-2-yl)methoxy)-2-fluorophenyl)-2-oxo-N-propyl-1,2-dihydroquinoline-3-carboxamide] | 0.46 nM | 1.3 nM | 0.18 | 0.29
12 | CCCNC(=O)c1c(N)c2cccc(-c3cc(OCc4ccc(F)cn4)ccc3F)c2[nH]c1=O [Example 92, 4-Amino-8-[2-fluoro-5-[(5-fluoro-2-pyridyl)methoxy]phenyl]-2-oxo-N-propyl-1H-quinoline-3-carboxamide] | 0.48 nM | 0.81 nM | 0.21 | 0.26
13 | CCCNC(=O)c1c(N)c2cccc(-c3cc(OCc4ccc(C)nc4)ccc3F)c2[nH]c1=O [Example 110, 4-Amino-8-[2-fluoro-5-[(6-methyl-3-pyridyl)methoxy]phenyl]-2-oxo-N-propyl-1H-quinoline-3-carboxamide] | 0.59 nM | 0.97 nM | 0.25 | 0.30
14 | CCCNC(=O)c1c(N)c2cccc(-c3cccc(OCc4cccnc4)n3)c2[nH]c1=O [Example 111, 4-Amino-2-oxo-N-propyl-8-(6-(pyridin-3-ylmethoxy)pyridin-2-yl)-1,2-dihydroquinoline-3-carboxamide] | 0.23 nM | 0.41 nM | 0.27 | 0.47
